Like-named read-outs stand apart in the source and are kept apart here.
Experiments:
[1] = standard procedure using buffer in the receiver compartment; ref [24], [33]; cited from earlier work
Abcb1a/b = Abcb1a/b (Mus musculus, UniProt P21447); assay: Inhibition of efflux of substrate drugs from the brain of Abcg2 KO mice; assay type: in vivo
human ABCG2/BCRP = target: T1, human ABCG2/BCRP (Homo sapiens, UniProt Q9UNQ0); assay: Drug accumulation assay in MDCKII-BCRP cells with 8-drug mixture plus inhibitor; settings: in vitro, MDCKII-BCRP vs MDCK-MDR1
T1 sequence (Q9UNQ0 1-655): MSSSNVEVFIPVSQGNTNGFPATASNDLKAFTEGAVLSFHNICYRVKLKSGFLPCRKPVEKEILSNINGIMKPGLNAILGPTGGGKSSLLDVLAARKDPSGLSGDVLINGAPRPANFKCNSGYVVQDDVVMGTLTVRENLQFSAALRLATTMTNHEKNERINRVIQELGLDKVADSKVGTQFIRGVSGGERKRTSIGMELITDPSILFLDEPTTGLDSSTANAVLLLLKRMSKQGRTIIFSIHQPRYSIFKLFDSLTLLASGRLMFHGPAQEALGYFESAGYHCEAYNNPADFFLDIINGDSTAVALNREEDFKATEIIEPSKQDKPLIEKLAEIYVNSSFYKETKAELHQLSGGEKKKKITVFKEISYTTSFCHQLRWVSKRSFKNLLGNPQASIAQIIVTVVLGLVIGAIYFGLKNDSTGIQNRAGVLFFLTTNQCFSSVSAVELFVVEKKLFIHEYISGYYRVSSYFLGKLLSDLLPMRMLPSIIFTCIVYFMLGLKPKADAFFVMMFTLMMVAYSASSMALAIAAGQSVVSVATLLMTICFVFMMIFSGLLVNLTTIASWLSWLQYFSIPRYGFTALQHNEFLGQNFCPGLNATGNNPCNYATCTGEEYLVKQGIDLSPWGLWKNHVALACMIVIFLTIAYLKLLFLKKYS

ABCB1 = settings: humans, cited from earlier work
[2] = cited from earlier work
[3] = Plasma concentration at the end of the 3 h i.p. infusion; assay type: in vivo; settings: male, FVB, mouse, ip
[4] = Rapid equilibrium dialysis; assay type: in vitro ADME
Abcg2 = target: T2, Abcg2 (Mus musculus, UniProt Q7TMS5); assay: Inhibition of efflux of substrate drugs from the brain of Abcb1a/b KO mice; assay type: in vivo
T2 sequence (Q7TMS5 1-657): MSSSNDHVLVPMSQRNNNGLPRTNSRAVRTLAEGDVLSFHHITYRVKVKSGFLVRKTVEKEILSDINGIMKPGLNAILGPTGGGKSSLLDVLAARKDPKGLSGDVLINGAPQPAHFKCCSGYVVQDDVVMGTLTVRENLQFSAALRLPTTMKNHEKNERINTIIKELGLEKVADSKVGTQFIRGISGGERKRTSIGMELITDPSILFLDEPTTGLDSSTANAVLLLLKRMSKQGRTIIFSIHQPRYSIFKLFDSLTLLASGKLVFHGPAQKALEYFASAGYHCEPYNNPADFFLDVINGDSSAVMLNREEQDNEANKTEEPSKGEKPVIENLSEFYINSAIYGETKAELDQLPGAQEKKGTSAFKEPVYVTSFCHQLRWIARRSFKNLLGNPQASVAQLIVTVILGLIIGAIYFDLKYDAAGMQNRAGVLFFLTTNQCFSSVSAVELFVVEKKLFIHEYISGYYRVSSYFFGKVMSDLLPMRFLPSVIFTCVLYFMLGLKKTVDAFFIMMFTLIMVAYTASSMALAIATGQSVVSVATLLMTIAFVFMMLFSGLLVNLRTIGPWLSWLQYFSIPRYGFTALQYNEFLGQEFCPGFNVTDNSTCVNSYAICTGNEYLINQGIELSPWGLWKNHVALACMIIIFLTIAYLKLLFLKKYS

[5] = cited from earlier work; remark: listed apart in the source
Abcb1a/b and Abcg2 = assay: Inhibition of efflux of substrate drugs from the brain of WT mice; settings: mouse, in vivo
Brain penetration = settings: WT mice, ABC transporter mediated efflux present, no inhibitor

Sequence of Abcb1a/b (P21447 whole entry): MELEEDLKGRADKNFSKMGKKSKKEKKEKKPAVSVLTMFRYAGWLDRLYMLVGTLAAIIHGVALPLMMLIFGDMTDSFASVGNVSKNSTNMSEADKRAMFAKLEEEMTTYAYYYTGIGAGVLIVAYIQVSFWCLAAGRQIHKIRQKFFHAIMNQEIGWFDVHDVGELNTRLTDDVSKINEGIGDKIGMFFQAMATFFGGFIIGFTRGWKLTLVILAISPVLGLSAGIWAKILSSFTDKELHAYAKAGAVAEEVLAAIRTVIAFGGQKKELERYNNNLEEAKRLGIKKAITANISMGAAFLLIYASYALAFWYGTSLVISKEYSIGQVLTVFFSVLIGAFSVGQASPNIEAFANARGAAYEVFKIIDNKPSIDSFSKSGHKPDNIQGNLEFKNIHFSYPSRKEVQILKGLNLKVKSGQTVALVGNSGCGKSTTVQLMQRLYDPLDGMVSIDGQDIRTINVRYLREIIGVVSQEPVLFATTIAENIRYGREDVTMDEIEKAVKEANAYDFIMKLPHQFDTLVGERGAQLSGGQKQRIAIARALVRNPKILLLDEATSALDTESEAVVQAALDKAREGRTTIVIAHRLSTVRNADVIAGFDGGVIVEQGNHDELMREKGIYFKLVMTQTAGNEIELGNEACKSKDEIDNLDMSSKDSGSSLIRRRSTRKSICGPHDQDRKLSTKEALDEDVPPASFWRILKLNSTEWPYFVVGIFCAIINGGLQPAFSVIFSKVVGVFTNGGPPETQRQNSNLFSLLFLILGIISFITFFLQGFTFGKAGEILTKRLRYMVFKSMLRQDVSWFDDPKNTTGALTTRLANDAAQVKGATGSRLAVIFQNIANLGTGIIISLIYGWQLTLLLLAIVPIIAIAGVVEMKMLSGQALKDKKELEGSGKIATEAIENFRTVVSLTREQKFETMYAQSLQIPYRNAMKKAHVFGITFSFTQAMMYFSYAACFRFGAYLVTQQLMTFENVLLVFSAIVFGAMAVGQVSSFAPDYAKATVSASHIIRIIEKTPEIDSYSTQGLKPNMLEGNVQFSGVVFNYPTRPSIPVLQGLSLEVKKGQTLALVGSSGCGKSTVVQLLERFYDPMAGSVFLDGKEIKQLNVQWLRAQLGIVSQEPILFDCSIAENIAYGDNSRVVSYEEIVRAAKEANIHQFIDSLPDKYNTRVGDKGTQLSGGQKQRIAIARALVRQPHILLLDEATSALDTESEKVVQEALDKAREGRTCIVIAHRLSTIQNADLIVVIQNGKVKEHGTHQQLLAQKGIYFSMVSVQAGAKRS

**Q.** Which Free fraction [1] does the source give for `COc1cc2c(cc1OC)CN(CCc1ccc(NC(=O)c3cc(OC)c(OC)cc3NC(=O)c3cnc4ccccc4c3)cc1)CC2` [Tariquidar] here?
**A.** below 0.01

**Q.** What about the “Inhibitor plasma level for (near) complete inhibition of ABCB1 at the BBB” value (Abcb1a/b) of the same compound?
**A.** at least 4000 nM

**Q.** And the “Plasma level above which own B/P ratio starts to increase” value (Abcb1a/b)?
**A.** above 4000 nM

**Q.** And the “Tariquidar plasma level required for near complete ABCB1 inhibition” value (Abcb1a/b; for loperamide and afatinib)?
**A.** ≥ 6 µM

**Q.** And the “Tariquidar plasma level required for near complete ABCB1 inhibition” value (Abcb1a/b; for verapamil and erlotinib)?
**A.** at least 4000 nM

**Q.** And the “Fold higher IC50 for ABCG2 than for ABCB1” value (human ABCG2/BCRP)?
**A.** about 10 fold

**Q.** And the “Fold increase of VT, brain of [11C]verapamil” value (ABCB1; tariquidar 4–8 mg/kg, infusion 1.5–2.5 h, ref [19], [35])?
**A.** 3.5 fold

**Q.** And the “Fold increased brain radioactivity of [11C]verapamil” value (ABCB1; tariquidar 2 mg/kg, 30 min i.v. infusion, ref [41])?
**A.** ≤ 2 fold

**Q.** What about the “Plasma level at the end of the infusion” value ([2]; humans, tariquidar 4–8 mg/kg i.v., 1.5–2.5 h, ref [19], [35]) of the same compound?
**A.** 3000 to 4000 nM

**Q.** What about the Oral bioavailability ([2]; oral dosing in humans, ref [20]) of the same compound?
**A.** very low

**Q.** And the concentration at 3 h ([3]; 10.5 mg/kg/h)?
**A.** > 6000 nM

**Q.** What about the “Plasma protein binding, mouse versus human plasma” value ([4]; RED competition setup) of the same compound?
**A.** very high but similar in mouse and human plasma

**Q.** And the “Fraction retrieved in the receiver chamber” value ([4]; RED, undiluted human or mouse plasma to human plasma, after 24 h of incubation)?
**A.** 2–3%

**Q.** What about the “Change of own B/P ratio with plasma concentration” value (Abcg2; Abcb1a/b KO and WT mice (Abcg2 proficient)) of the same compound?
**A.** did not increase

**Q.** And the “Enhancement of brain accumulation of ABCG2-substrate drugs” value (Abcg2; Abcb1a/b KO mice)?
**A.** none of the ABCG2-substrate drugs exhibit significant enhancement

**Q.** With `CNC(=O)c1cc(Oc2ccc(NC(=O)Nc3ccc(Cl)c(C(F)(F)F)c3)cc2)ccn1` [Sorafenib] as the compound, how does the “Fold higher brain uptake in Abcg2;Abcb1a/b KO vs WT mice” value ([5]; LC-MS/MS on brain homogenates, ref [39]) read?
**A.** 9.3 fold

**Q.** Which concentration at 3 h [3] does the source give for `C#Cc1cccc(Nc2ncnc3cc(OCCOC)c(OCCOC)cc23)c1` [Erlotinib] here?
**A.** 100 to 250 nM

**Q.** Which concentration at 3 h [3] does the source give for `COc1ccc(CCN(C)CCCC(C#N)(c2ccc(OC)c(OC)c2)C(C)C)cc1OC` (stereo not shown) [Verapamil] here?
**A.** 100 to 250 nM

**Q.** For `CNC(=O)c1cc(Oc2ccc(N[11C](=O)Nc3ccc(Cl)c(C(F)(F)F)c3)cc2)ccn1` [[^11C]sorafenib], which “Fold higher brain uptake in Abcg2;Abcb1a/b KO vs WT mice” value ([5]; PET, ref [38]) is on record?
**A.** 3 fold

**Q.** For `COc1cc2c(cc1OC)CN(CCc1ccc(NC(=O)c3cccc4c(=O)c5cccc(OC)c5[nH]c34)cc1)CC2` [Elacridar, 9,10-dihydro-5-methoxy-9-oxo-N-[4-[2-(1,2,3,4-tetrahydro-6,7-dimethoxy-2-isoquinolinyl)ethyl]phenyl]-4-acridine-carboxamide], which Free fraction [1] is on record?
**A.** below 0.01

**Q.** What about the “Proposed target plasma level to enhance brain entry” value (Abcb1a/b and Abcg2) of the same compound?
**A.** 1200 nM and about 700 ng/ml

**Q.** And the “Elacridar plasma level for maximum inhibition of efflux” value (Abcg2; Abcb1a/b KO mice, palbociclib, dasatinib and erlotinib (Class II))?
**A.** above 1200 nM

**Q.** What about the “Plasma level at which inhibitor inhibits its own ABCG2-mediated efflux” value (Abcg2; brain efflux in mice) of the same compound?
**A.** about 1200 nM

**Q.** For `CCCS(=O)(=O)Nc1ccc(F)c(C(=O)c2c[nH]c3ncc(-c4ccc(Cl)cc4)cc23)c1F` [Vemurafenib], which B/P ratio (Brain penetration) is on record?
**A.** 0.02

**Q.** And the concentration at 3 h [3]?
**A.** 100 to 250 nM

Source: paper PMC11301932 (Fluids and Barriers of the CNS, 2024)
